Results from ChEMBL document CHEMBL3872201, “Synthesis and antiproliferative activity of a natural like glycoconjugate polycyclic compound” (2016).

Assay: Cytotoxicity against human MDA-MB-231 cells assessed as inhibition of cell viability at 5 uM after 48 hrs by MTT assay relative to control
Format: functional
Conditions: MDA-MB-231, 48 h

## C=C1c2c(C)nn(-c3ccc(OC)cc3)c2N(C)C23CC1C1(C)c4c(C)nn(-c5ccc(OC)cc5)c4N(C)C(C)(CC12)C3 (stereo unspecified)
  inhibition at 5 µM: 26%
